Experimental data from ChEMBL document CHEMBL3132744, “Structureactivity relationship studies of miniproteins targeting the androgen receptorcoactivator interaction” (Medchemcomm, 2013).
Square brackets hold non-standard residues; d marks the D form. Peptide text beside a SMILES is read from it. Phe(4-Cl) = N[C@@H](Cc1ccc(Cl)cc1)C(=O)O; Phe(2-Cl) = N[C@@H](Cc1ccccc1Cl)C(=O)O; Cha = N[C@@H](CC1CCCCC1)C(=O)O

These compounds were tested against T1, Androgen receptor (Homo sapiens, UniProt P10275) (assay: Displacement of fluorescein-CSSRFESLFAGEKESR from human androgen receptor-LBD after 1 hr by fluorescence polarization assay).
T1 sequence (P10275 whole entry): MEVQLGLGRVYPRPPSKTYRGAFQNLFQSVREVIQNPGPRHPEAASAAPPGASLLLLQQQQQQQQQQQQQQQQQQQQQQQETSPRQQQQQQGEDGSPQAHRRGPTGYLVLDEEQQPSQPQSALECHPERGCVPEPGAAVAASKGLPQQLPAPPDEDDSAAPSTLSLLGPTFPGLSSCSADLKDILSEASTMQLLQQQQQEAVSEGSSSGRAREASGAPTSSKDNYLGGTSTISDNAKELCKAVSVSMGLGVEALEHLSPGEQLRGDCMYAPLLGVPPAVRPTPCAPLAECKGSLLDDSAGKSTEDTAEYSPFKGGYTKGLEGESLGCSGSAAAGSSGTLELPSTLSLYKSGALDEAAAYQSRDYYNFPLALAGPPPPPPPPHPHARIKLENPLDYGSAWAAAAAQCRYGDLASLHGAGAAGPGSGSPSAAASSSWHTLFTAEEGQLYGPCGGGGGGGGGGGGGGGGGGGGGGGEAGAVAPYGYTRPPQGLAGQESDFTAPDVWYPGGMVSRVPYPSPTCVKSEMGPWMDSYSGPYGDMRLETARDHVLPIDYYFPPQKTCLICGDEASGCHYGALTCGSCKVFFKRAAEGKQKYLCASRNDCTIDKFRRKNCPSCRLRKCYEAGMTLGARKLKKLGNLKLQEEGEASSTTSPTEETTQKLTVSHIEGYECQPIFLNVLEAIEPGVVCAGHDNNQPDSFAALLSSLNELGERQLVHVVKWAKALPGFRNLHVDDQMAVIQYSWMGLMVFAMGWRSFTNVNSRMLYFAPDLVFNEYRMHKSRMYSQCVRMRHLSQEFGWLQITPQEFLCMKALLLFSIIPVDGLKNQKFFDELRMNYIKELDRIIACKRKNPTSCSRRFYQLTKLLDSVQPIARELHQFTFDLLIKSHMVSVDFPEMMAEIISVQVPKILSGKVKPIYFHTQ

| Ki [µM] | Compound |
| --- | --- |
| 11 | CC[C@H](C)[C@H](NC(=O)[C@H](CS)NC(=O)[C@H](Cc1ccccc1)NC(=O)[C@H](CC(C)C)NC(=O)[C@H](CCC(=O)O)NC(=O)[C@H](CS)NC(=O)[C@H](CC1CCCCC1)NC(=O)[C@H](CCCNC(=N)N)NC(=O)[C@@H](N)CC(N)=O)C(=O)N[C@@H](CCC(N)=O)C(=O)NCC(=O)N[C@H](C(=O)NCC(=O)N[C@@H](CC(=O)O)C(=O)N[C@H](C(=O)N[C@@H](CCCCN)C(=O)N[C@@H](C)C(=O)N[C@@H](CS)C(=O)N[C@@H](CCC(=O)O)C(=O)N[C@@H](Cc1c[nH]c2ccccc12)C(=O)N[C@@H](C)C(=O)N[C@@H](CS)C(=O)N[C@@H](CCC(N)=O)C(=O)O)C(C)C)[C@@H](C)O (H-NR[Cha]CELFCIQGTGDVKACEWACQ-OH) |
| 0.4 | CC[C@H](C)[C@H](NC(=O)[C@H](CS)NC(=O)[C@H](Cc1ccccc1Cl)NC(=O)[C@H](CC(C)C)NC(=O)[C@H](CCC(=O)O)NC(=O)[C@H](CS)NC(=O)[C@H](Cc1ccccc1)NC(=O)[C@H](CCCNC(=N)N)NC(=O)[C@@H](N)CC(N)=O)C(=O)N[C@@H](CCC(N)=O)C(=O)NCC(=O)N[C@H](C(=O)NCC(=O)N[C@@H](CC(=O)O)C(=O)N[C@H](C(=O)N[C@@H](CCCCN)C(=O)N[C@@H](C)C(=O)N[C@@H](CS)C(=O)N[C@@H](CCC(=O)O)C(=O)N[C@@H](Cc1c[nH]c2ccccc12)C(=O)N[C@@H](C)C(=O)N[C@@H](CS)C(=O)N[C@@H](CCC(N)=O)C(=O)O)C(C)C)[C@@H](C)O (H-NRFCEL[Phe(2-Cl)]CIQGTGDVKACEWACQ-OH) |
| 2 | CC(C)C[C@H](NC(=O)[C@H](CS)NC(=O)[C@H](CC(N)=O)NC(=O)[C@H](Cc1ccccc1)NC(=O)[C@H](Cc1ccc(O)cc1)NC(=O)[C@H](CS)NC(=O)[C@H](C)N)C(=O)N[C@@H](Cc1ccccc1)C(=O)N[C@@H](CCC(=O)O)C(=O)NCC(=O)N[C@@H](CC(N)=O)C(=O)N[C@@H](CC(=O)O)C(=O)N[C@@H](CCC(=O)O)C(=O)N[C@@H](CCC(=O)O)C(=O)N[C@H](C(=O)N[C@@H](CS)C(=O)N[C@@H](CCCCN)C(=O)N[C@@H](CCC(=O)O)C(=O)N[C@@H](CCCNC(=N)N)C(=O)N[C@@H](CS)C(=O)O)[C@@H](C)O (H-ACYFNCLFEGNDEETCKERC-OH) |
| 1.7 | CC(C)C[C@H](NC(=O)[C@H](CS)NC(=O)[C@H](CC(N)=O)NC(=O)[C@H](Cc1ccccc1)NC(=O)[C@H](Cc1ccc(O)cc1)NC(=O)[C@H](CS)NC(=O)[C@H](C)N)C(=O)N[C@@H](Cc1ccccc1)C(=O)N[C@@H](CCC(=O)O)C(=O)NCC(=O)N[C@@H](CC(N)=O)C(=O)N[C@@H](CC(=O)O)C(=O)N[C@@H](CCC(=O)O)C(=O)N[C@@H](CCC(=O)O)C(=O)N[C@H](C(=O)N[C@@H](CS)C(=O)N[C@@H](CCCCN)C(=O)N[C@@H](CCC(=O)O)C(=O)N[C@@H](Cc1c[nH]c2ccccc12)C(=O)N[C@@H](CS)C(=O)O)[C@@H](C)O (H-ACYFNCLFEGNDEETCKEWC-OH) |
| 2.3 | CC[C@H](C)[C@H](NC(=O)[C@H](CS)NC(=O)[C@H](Cc1ccccc1)NC(=O)[C@H](CC(C)C)NC(=O)[C@H](CCC(=O)O)NC(=O)[C@H](CS)NC(=O)[C@H](Cc1ccc(Cl)cc1)NC(=O)[C@H](CCCNC(=N)N)NC(=O)[C@@H](N)CC(N)=O)C(=O)N[C@@H](CCC(N)=O)C(=O)NCC(=O)N[C@H](C(=O)NCC(=O)N[C@@H](CC(=O)O)C(=O)N[C@H](C(=O)N[C@@H](CCCCN)C(=O)N[C@@H](C)C(=O)N[C@@H](CS)C(=O)N[C@@H](CCC(=O)O)C(=O)N[C@@H](Cc1c[nH]c2ccccc12)C(=O)N[C@@H](C)C(=O)N[C@@H](CS)C(=O)N[C@@H](CCC(N)=O)C(=O)O)C(C)C)[C@@H](C)O (H-NR[Phe(4-Cl)]CELFCIQGTGDVKACEWACQ-OH) |
| 0.6 | CC(C)C[C@H](NC(=O)[C@H](CS)NC(=O)[C@H](CC(N)=O)NC(=O)[C@H](Cc1ccccc1)NC(=O)[C@H](Cc1ccc(O)cc1)NC(=O)[C@H](CS)NC(=O)[C@H](C)N)C(=O)N[C@@H](Cc1ccc(Cl)cc1)C(=O)N[C@@H](CCC(=O)O)C(=O)NCC(=O)N[C@@H](CC(N)=O)C(=O)N[C@@H](CC(=O)O)C(=O)N[C@@H](CCC(=O)O)C(=O)N[C@@H](CCC(=O)O)C(=O)N[C@H](C(=O)N[C@@H](CS)C(=O)N[C@@H](CCCCN)C(=O)N[C@@H](CCC(=O)O)C(=O)N[C@@H](Cc1c[nH]c2ccccc12)C(=O)N[C@@H](CS)C(=O)O)[C@@H](C)O (H-ACYFNCL[Phe(4-Cl)]EGNDEETCKEWC-OH) |
| 3 | CC(C)C[C@H](NC(=O)[C@H](CS)NC(=O)[C@H](C)N)C(=O)N[C@@H](Cc1ccccc1)C(=O)N[C@@H](CC(N)=O)C(=O)N[C@@H](CS)C(=O)N[C@@H](CC(C)C)C(=O)N[C@@H](Cc1ccccc1)C(=O)N[C@@H](CCC(=O)O)C(=O)NCC(=O)N[C@@H](CC(N)=O)C(=O)N[C@@H](CC(=O)O)C(=O)N[C@@H](CCC(=O)O)C(=O)N[C@@H](CCC(=O)O)C(=O)N[C@H](C(=O)N[C@@H](CS)C(=O)N[C@@H](CCCCN)C(=O)N[C@@H](CCC(=O)O)C(=O)N[C@@H](Cc1c[nH]c2ccccc12)C(=O)N[C@@H](CS)C(=O)O)[C@@H](C)O (H-ACLFNCLFEGNDEETCKEWC-OH) |
| 4 | CC(C)C[C@H](NC(=O)[C@H](CS)NC(=O)[C@H](Cc1ccccc1)NC(=O)[C@H](Cc1ccccc1)NC(=O)[C@H](Cc1ccc(O)cc1)NC(=O)[C@H](CS)NC(=O)[C@H](C)N)C(=O)N[C@@H](Cc1ccccc1)C(=O)N[C@@H](CCC(=O)O)C(=O)NCC(=O)N[C@@H](CC(N)=O)C(=O)N[C@@H](CC(=O)O)C(=O)N[C@@H](CCC(=O)O)C(=O)N[C@@H](CCC(=O)O)C(=O)N[C@H](C(=O)N[C@@H](CS)C(=O)N[C@@H](CCCCN)C(=O)N[C@@H](CCC(=O)O)C(=O)N[C@@H](Cc1c[nH]c2ccccc12)C(=O)N[C@@H](CS)C(=O)O)[C@@H](C)O (H-ACYFFCLFEGNDEETCKEWC-OH) |
| 4.1 | CC[C@H](C)[C@H](NC(=O)[C@H](CS)NC(=O)[C@H](Cc1ccccc1)NC(=O)[C@H](CCSC)NC(=O)[C@H](CCC(=O)O)NC(=O)[C@H](CS)NC(=O)[C@H](Cc1ccccc1)NC(=O)[C@H](CCCNC(=N)N)NC(=O)[C@@H](N)CC(N)=O)C(=O)N[C@@H](CCC(N)=O)C(=O)NCC(=O)N[C@H](C(=O)NCC(=O)N[C@@H](CC(=O)O)C(=O)N[C@H](C(=O)N[C@@H](CCCCN)C(=O)N[C@@H](C)C(=O)N[C@@H](CS)C(=O)N[C@@H](CCC(=O)O)C(=O)N[C@@H](Cc1c[nH]c2ccccc12)C(=O)N[C@@H](C)C(=O)N[C@@H](CS)C(=O)N[C@@H](CCC(N)=O)C(=O)O)C(C)C)[C@@H](C)O (H-NRFCEMFCIQGTGDVKACEWACQ-OH) |
| 2.2 | CC[C@H](C)[C@H](NC(=O)[C@H](CS)NC(=O)[C@H](Cc1ccccc1)NC(=O)[C@H](CC(C)C)NC(=O)[C@H](CCC(=O)O)NC(=O)[C@H](CS)NC(=O)[C@H](Cc1ccccc1Cl)NC(=O)[C@H](CCCNC(=N)N)NC(=O)[C@@H](N)CC(N)=O)C(=O)N[C@@H](CCC(N)=O)C(=O)NCC(=O)N[C@H](C(=O)NCC(=O)N[C@@H](CC(=O)O)C(=O)N[C@H](C(=O)N[C@@H](CCCCN)C(=O)N[C@@H](C)C(=O)N[C@@H](CS)C(=O)N[C@@H](CCC(=O)O)C(=O)N[C@@H](Cc1c[nH]c2ccccc12)C(=O)N[C@@H](C)C(=O)N[C@@H](CS)C(=O)N[C@@H](CCC(N)=O)C(=O)O)C(C)C)[C@@H](C)O (H-NR[Phe(2-Cl)]CELFCIQGTGDVKACEWACQ-OH) |
| 3 | CC(C)C[C@H](NC(=O)[C@H](CS)NC(=O)[C@H](CC(N)=O)NC(=O)[C@H](Cc1ccccc1)NC(=O)[C@H](Cc1ccc(O)cc1)NC(=O)[C@H](CS)NC(=O)[C@H](C)N)C(=O)N[C@@H](Cc1ccccc1Cl)C(=O)N[C@@H](CCC(=O)O)C(=O)NCC(=O)N[C@@H](CC(N)=O)C(=O)N[C@@H](CC(=O)O)C(=O)N[C@@H](CCC(=O)O)C(=O)N[C@@H](CCC(=O)O)C(=O)N[C@H](C(=O)N[C@@H](CS)C(=O)N[C@@H](CCCCN)C(=O)N[C@@H](CCC(=O)O)C(=O)N[C@@H](Cc1c[nH]c2ccccc12)C(=O)N[C@@H](CS)C(=O)O)[C@@H](C)O (H-ACYFNCL[Phe(2-Cl)]EGNDEETCKEWC-OH) |
| 56 | CC[C@H](C)[C@H](NC(=O)[C@H](CS)NC(=O)[C@H](CC1CCCCC1)NC(=O)[C@H](CC(C)C)NC(=O)[C@H](CCC(=O)O)NC(=O)[C@H](CS)NC(=O)[C@H](Cc1ccccc1)NC(=O)[C@H](CCCNC(=N)N)NC(=O)[C@@H](N)CC(N)=O)C(=O)N[C@@H](CCC(N)=O)C(=O)NCC(=O)N[C@H](C(=O)NCC(=O)N[C@@H](CC(=O)O)C(=O)N[C@H](C(=O)N[C@@H](CCCCN)C(=O)N[C@@H](C)C(=O)N[C@@H](CS)C(=O)N[C@@H](CCC(=O)O)C(=O)N[C@@H](Cc1c[nH]c2ccccc12)C(=O)N[C@@H](C)C(=O)N[C@@H](CS)C(=O)N[C@@H](CCC(N)=O)C(=O)O)C(C)C)[C@@H](C)O (H-NRFCEL[Cha]CIQGTGDVKACEWACQ-OH) |
